A short description of the series: solvent given as SMILES.

Here are results for 48 compounds from the Deep4Chem optical property database.

The structures appear in SMILES notation.

Regarding `CCCCCCC(CCCCCC)N1C(=O)c2cccc3c(-c4ccc(C#N)cc4)ccc(c23)C1=O`, the absorption maximum is, setting by setting: (in CCCCCC) 355.6 nm; (in CCCCCCCCCCCCCC) 356.2 nm; (in CCCCCCCCCCCO) 365.8 nm; (in CCCCO) 367.8 nm; (in CN(C)C=O) 367.8 nm; (in Cc1ccccc1) 364.6 nm. The same compound yielded an absorption maximum (in ClC(Cl)Cl) of 366.4 nm.

Take `C(=N\c1ccc(-c2cn3nc(-c4cccs4)sc3n2)cc1)/c1ccc2ccc3cccc4ccc1c2c34`: under “in ClC(Cl)Cl”, the absorption maximum is given as 403 nm.

Regarding `CCN(CC)c1ccc2cc(/C=C/c3ccc([N+](=O)[O-])cc3)c(=O)oc2c1`, the absorption maximum (in CC#N) was 459 nm.

Compound `N#Cc1ccc(-n2c3ccccc3c3c2c2ccccc2n3-c2ccccc2)cc1` registered an absorption maximum (in Cc1ccccc1) of 359 nm.

As for `CN(C)c1ccc(/C=C(\C#N)c2nc3ccccc3s2)cc1`, the absorption maximum runs as follows: (in C1CCCCC1) 430 nm; (in CO) 450 nm.

On to `CC[N+]1(CC)CN2C(=N1)C(C(=O)O)=Cc1cc(C)c(C)cc12`, for which the absorption maximum (in O) came out at 378 nm.

Consider `CN(C)c1ccc2c(c1)C(=O)c1ccccc1-2`, for which the absorption maximum is, setting by setting: (in C1CCCCC1) 484 nm; (in CC#N) 510 nm; (in CCO) 509 nm; (in c1ccccc1) 507 nm.

In the case of `Cc1ccc(-n2c(-c3ccccc3O)nc(-c3ccccc3O)c2-c2ccccc2O)cc1`, the absorption maximum (in C1CCOC1) came out at 307 nm; the absorption maximum (in CC(C)O) was 303 nm; the absorption maximum (in CO) is 303 nm; the absorption maximum (in CS(C)=O) was found to be 306 nm; the absorption maximum (in ClC(Cl)Cl) is listed as 310 nm; the absorption maximum (in ClCCl) came out at 309 nm.

With `CNCCCN1c2ccccc2CCc2ccccc21`, the absorption maximum stood at 276 nm (in CC#N), 276 nm (in CO) and 275 nm (in O).

Take `CCCCn1c2ccccc2c2ccc(C#Cc3ccc4ccc5cccc6ccc3c4c56)cc21`: the absorption maximum (in ClCCl) amounted to 404 nm.

The compound `CC(C)=CCN1C(=O)c2cccc3c2c(cc2oc(C)nc23)C1=O` registered an absorption maximum (in CCO) of 362 nm.

The compound `CCCCn1c2ccc(-c3ccc4ccccc4c3)cc2c2ccc3c4cc(-c5ccc6ccccc6c5)ccc4n(CCCC)c3c21` had an absorption maximum (in ClC(Cl)Cl) of 327 nm.

Where the note is “in ClCCl”, `CCCCC1C(=O)c2cc(Oc3ccc(C(C)(C)C)cc3)c3c4c(Oc5ccc(C(C)(C)C)cc5)cc5c6c(cc(Oc7ccc(C(C)(C)C)cc7)c(c7c(Oc8ccc(C(C)(C)C)cc8)cc(c2c37)C1=O)c64)C1=C(C5=O)c2ccc3ccccc3[n+]2[B-](F)(F)O1` (stereo unspecified) gave an absorption maximum of 616 nm.

As for `CN(C)c1ccc(/C=C/c2cc(/C=C/c3ccc(N(C)C)cc3)nc(/C=C/c3ccc(C(F)(F)F)cc3)n2)cc1`, the absorption maximum (in ClCCl) came to 429 nm.

With `CCCCCCOc1cc(C=C2c3ccccc3-c3ccccc32)c(OCCCCCC)cc1C=C1c2ccccc2C=Cc2ccccc21`, the absorption maximum (in C1CCOC1) was determined as 397 nm.

`N#Cc1c(C#N)c2cc(F)ccc2c2ccc(F)cc12` gave an absorption maximum (in ClC(Cl)Cl) of 335 nm.

Consider `N#Cc1cc(-c2ccc(N3c4ccccc4Oc4ccccc43)cc2)c(-c2ccc(N3c4ccccc4Oc4ccccc43)cc2)cc1C#N`, for which, where the note is “in Cc1ccccc1”, the absorption maximum turned out to be 406 nm.

`CC(C)(C)c1ccc2c(c1)c1cc(C(C)(C)C)ccc1n2-c1ccc(C#Cc2ccc3c4ccc(C#Cc5ccc(C=C(C#N)C#N)cc5)cc4n(-c4ccc(C(F)(F)F)cc4)c3c2)cc1` showed an absorption maximum (in ClCCl) of 355 nm.

The compound `C=C[Si](c1c2ccccc2cc2ccccc12)(c1c2ccccc2cc2ccccc12)c1c2ccccc2cc2ccccc12` showed an absorption maximum (in ClC(Cl)Cl) of 404 nm.

`COC(=O)C1(C(=O)OC)Cc2c(C#Cc3ccc(OC)cc3)c(-c3ccc(OC)cc3)c3c(-c4ccccc4)c(-c4ccccc4)c(-c4ccccc4)c(-c4ccccc4)c3c2C1`: the absorption maximum (in C1CCOC1) came to 348.89 nm.

As for `N#C/C(=C\c1ccc(C#N)cc1)c1nc(-c2ccccc2)cs1`, the absorption maximum by setting is: (in CC#N) 370 nm; (in CCO) 375 nm; (in CN(C)C=O) 376 nm; (in Cc1ccccc1) 380 nm; (in ClCCl) 375 nm.

Regarding `CN(C)c1ccc2nc3c(cc2c1)c(-c1ccccc1)nn3-c1ccccc1`, the absorption maximum came to 439.56 nm (in C1CCCCC1); 450.05 nm (in C1CCOC1); 449.24 nm (in CC#N); 450.45 nm (in CC(C)=O); 448.43 nm (in CCCCCl); 444.64 nm (in CCCCOCCCC). For the same compound, for the setting “in CN(C)C=O”, the absorption maximum is on record as 452.69 nm.

On to `C(=C\c1ncnc2ccccc12)/c1ccc(-c2ccc(N(c3ccccc3)c3ccccc3)cc2)cc1`, for which the absorption maximum (in ClCCl) is 402 nm.

As to `F[B-]1(F)n2c(-c3ccccc3)cnc2-c2cccc[n+]21`, the absorption maximum turned out to be 412 nm (in C1CCCCC1); 394 nm (in C1CCOC1); 394 nm (in C1COCCO1); 384 nm (in CC#N); 412 nm (in CCCCCC); 382 nm (in CO). For the setting “in ClC(Cl)Cl”, this compound gave an absorption maximum of 369 nm.

With `CC(C)(C)c1ccc2ccc3c(C(C)(C)C)ccc4ccc1c2c43`, the absorption maximum runs as follows: (in CCCCCC) 346 nm; (in CO) 345 nm; (in ClCCl) 348 nm.

As to `Cc1ccc2c(c1)nnn2-c1c(C#N)c2c(N)ncnc2n1[C@H]1C[C@H](O)[C@@H](CO)O1`, the absorption maximum (in CO) came to 278 nm.

Under “in ClCCl”, `CCCCc1cc2c3c(c1)-c1ccccc1B(c1c(C)cc(C)cc1C)N3B(c1c(C)cc(C)cc1C)c1ccccc1-2` displayed an absorption maximum of 366 nm.

With `C1=Cc2ccccc2Cc2ccccc21`, the absorption maximum is reported as 285 nm (in CC#N) and 285 nm (in CO).

For the compound `CCCCCCCCOc1ccc(C2=C(c3ccc(OCCCCCCCC)cc3)C(C)(C)c3ccccc32)cc1`, the absorption maximum (in C1CCCCC1) was 281 nm.

In turn, `[O-][n+]1c(/C=C/c2ccccc2)nc(N2CCOCC2)c2c1CCCC2` came in with an absorption maximum (in ClCCl) of 400 nm.

In turn, `c1ccc(-c2cc(-c3ccc(N4c5ccccc5C(c5ccccc5)(c5ccccc5)c5ccccc54)cn3)nc(-c3ccccc3)n2)cc1` came in with an absorption maximum (in Cc1ccccc1) of 378.85 nm.

Regarding `Cc1ccc([C@@H]2C[C@](O)(c3ccccn3)C[C@](O)(c3ccccn3)[C@H]2C(=O)c2ccc(N(c3ccccc3)c3ccccc3)cc2)cc1`, the absorption maximum is, setting by setting: (in C1CCOC1) 366 nm; (in CC#N) 364 nm; (in CCO) 366 nm; (in CCOC(C)=O) 366 nm; (in CN(C)C=O) 360 nm; (in ClCCl) 372 nm. This compound also registered an absorption maximum (in c1ccccc1) of 370 nm.

As for `CC(C)(C)OC(=O)NCCCC(=O)OCc1ccc2c3cccc4cccc(c5cccc1c52)c43`, the absorption maximum (in CCO) was 439 nm.

`CC[n+]1c(-c2ccccc2)c2cc(NC(N)=[NH2+])ccc2c2ccc(N)cc21` displayed an absorption maximum (in O) of 454 nm.

Turning to `c1ccc2c(-n3cnc4ccccc43)cccc2c1`, the absorption maximum is, setting by setting: (in C1CCCCC1) 283 nm; (in C1CCOC1) 282 nm; (in CC#N) 286 nm; (in CCO) 284 nm; (in CCOC(C)=O) 283 nm; (in CCOCC) 284 nm. Besides, the absorption maximum (in CO) was found to be 284 nm, the absorption maximum (in Cc1ccccc1) is listed as 282 nm and the absorption maximum (in ClC(Cl)Cl) stood at 285 nm.

The compound `CN(C)c1ccc(N2c3c(sc4ccccc34)Sc3sc4ccccc4c32)cc1` displayed an absorption maximum (in ClCCl) of 309 nm.

As for `CC1=[N+]2C(=C(c3ccccc3)c3c4c5ccccc5c5ccccc5c4c(C)n3[B-]2(F)F)c2c1c1ccccc1c1ccccc21`, the absorption maximum (in CCCCCC) turned out to be 630 nm.

As to `O=C(N/N=C/c1ccccc1O)c1ccccc1O`, the absorption maximum runs as follows: (in C1CCOC1) 334 nm; (in CC#N) 335 nm; (in CC(C)=O) 331 nm; (in CCO) 400 nm; (in CN(C)C=O) 412 nm; (in CS(C)=O) 385 nm. For the same compound, under “in ClCCl”, the absorption maximum stood at 335 nm.

Turning to `COc1ccc(C(=O)OCc2ccc3c4cccc5cccc(c6cccc2c63)c54)cc1`, the absorption maximum (in CCO) is on record as 439 nm.

Under “in CC#N”, `N#Cc1nn(-c2ccccc2)nc1N1CCCC1` yielded an absorption maximum of 340 nm.

As to `CN1/C(=C/C=C(/C=C/c2sc3ccccc3[n+]2C)c2cccc(C(F)(F)F)c2)Sc2ccccc21`, the absorption maximum amounted to 645 nm (in CCO), 642 nm (in CO), 653 nm (in CS(C)=O) and 639 nm (in O).

Compound `CC1(C)OB(c2cc3ccc4cc(B5OC(C)(C)C(C)(C)O5)cc5ccc(c2)c3c45)OC1(C)C` registered an absorption maximum (in Cc1ccccc1) of 398 nm.

As to `O=Cc1cnc(-c2c3ccccc3cc3ccccc23)nc1`, the absorption maximum runs as follows: (in CCO) 381 nm; (in ClCCl) 384 nm.

As to `Cc1cc(C)c(C)c(-c2cc(-c3c(C)c(C)cc(C)c3C)c3ccc4c(-c5c(C)c(C)cc(C)c5C)cc(-c5c(C)c(C)cc(C)c5C)c5ccc2c3c54)c1C`, the absorption maximum (in ClCCl) is 364 nm.

For the setting “in CCO”, `CC(C)(C)OC(=O)NCC(=O)OCc1ccc2c3cccc4cccc(c5cccc1c52)c43` registered an absorption maximum of 439 nm.

Consider `c1ccc(-c2nc(-c3ccccc3)nc(-c3ccc(-n4c5ccccc5c5cc(-c6ccc7sc8ccccc8c7c6)ccc54)cc3)n2)cc1`, for which, where the note is “in Cc1ccccc1”, the absorption maximum came to 370 nm.

Regarding `CC1(C)CC(/N=C/c2ccc3ccc4cccc5ccc2c3c45)CC(C)(C)N1[O]`, the absorption maximum was determined as 360 nm (in C1CCCCC1), 359 nm (in CC#N), 359 nm (in CO) and 362 nm (in ClC(Cl)Cl).

Consider `CC1(C)c2ccccc2N(c2ccc(-c3nnc(-c4ccc(N5c6ccccc6C(C)(C)c6ccccc65)cc4)o3)cc2)c2ccccc21`, for which, where the note is “in Cc1ccccc1”, the absorption maximum is given as 360 nm.
